System: colorectal tissue transcripts
Assay: SAGE of normal, adenoma and cancer colorectal tissue (transcript tag counts)
Design: species or system human
From the text: In an effort to identify potential molecular markers of early colorectal tumors, we have here analyzed gene expression in benign and malignant colorectal tumors in an unbiased and comprehensive fashion. We used SAGE to analyze global gene expression in normal, benign and malignant colorectal tissue. SAGE is a gene expression profiling method that associates individual mRNA transcripts with 15-base tags derived from specific positions near their 3′ termini (3). The abundance of each tag provides a quantitative measure of the transcript level present within the mRNA population studied. SAGE is not dependent on pre-existing databases of expressed genes, and therefore provides an unbiased view of gene expression profiles. For the current study, SAGE libraries derived from two samples of normal colonic epithelium, two colorectal adenomas, and two colorectal cancers were analyzed.
SAGE. For the initial SAGE^3 of benign tumors, fresh adenomas were obtained from surgical specimens derived from FAP patients. Adenomas from FAP patients were employed because of the ready availability of small lesions and the certainty of inactivation of the APC pathway which initiates the formation of the majority of sporadic tumors. After histopathological verification of the neoplastic nature of the lesion (>70% neoplastic cells), total RNA was isolated by solubilizing the tissue in RNAgents Lysis Buffer (Promega, Madison, Wis.) followed by ultracentrifugation over a cesium chloride gradient. mRNA selection was performed from the purified total RNA using oligo(dT) cellulose (Life Technologies, Gaithersburg, Md.). […] Tags were extracted from the raw sequence data and, after excluding repeated ditags, linker sequences, and tags from the polyrnorphic Major Histocompatibility loci, the resulting tag libraries were compared and statistical analysis performed using SAGE software, version 4.0. Data from the libraries are publicly available at the Uniform Resource Locator (URL) address for the http file type found on the www host server that has a domain name of ncbi.nlm.nih.gov, and a path to the directory SAGE, and detailed SAGE protocols are available at the Uniform Resource Locator (URL) address for the http file type found on the www host server that has a domain name of sagenet.org, and file name of sage_protocol.htn.

[1] = normal colorectal tissue library 1
[2] = normal colorectal tissue library 2

Sequence	AD1 (SAGE tag count) (SAGE library AD1)	AD2 (SAGE tag count) (SAGE library AD2)	CA1 (SAGE tag count) (SAGE library CA1)	CA2 (SAGE tag count) (SAGE library CA2)	NC1 (SAGE tag count) (SAGE library NC1)	NC2 (SAGE tag count) (SAGE library NC2)	AD1 (SAGE tag count) (adenoma library 1)	AD2 (SAGE tag count) (adenoma library 2)	CA1 (SAGE tag count) (cancer library 1)	CA2 (SAGE tag count) (cancer library 2)	NC1 (SAGE tag count) [1]	NC2 (SAGE tag count) [2]
GCCCACACAG (chemistry not fully specified)	1	1	0	0	15	0						
AGCAGGAGCA (chemistry not fully specified)	6	3	7	6	50	14						
CCTGTCTGCC (chemistry not fully specified)	0	1	1	1	14	22						
ATTTCAAGAT (chemistry not fully specified)	0	2	1	0	35	21						
GGAGGCCGAG (chemistry not fully specified)	5	0	2	5	13	9						
CATAGGTTTA (chemistry not fully specified)	4	1	5	0	66	39						
TACGGTGTGG (chemistry not fully specified)							2	2	1	0	7	13
GTGGTGGCAG (chemistry not fully specified; the letters are possibly those of the target site)	1	1	10	3	29	11						
GGAACAGGGG (chemistry not fully specified)	1	0	0	2	1	13						
AATAGTTTCC (chemistry not fully specified)	2	3	6	1	7	16						
GCCCAGGGCC (chemistry not fully specified; the letters are possibly those of the target site)	2	1	2	1	4	44						
TCAGAGCGCT (chemistry not fully specified)							0	7	0	1	5	21
GGAACTGTGA (chemistry not fully specified)	10	18	10	2	90	84						
GCCCAGGTCA (chemistry not fully specified)	136	128	58	22	519	447						
AGCCCGACCA (chemistry not fully specified)	2	4	1	3	16	8						
GCCCACGTCA (chemistry not fully specified)	0	0	0	0	7	8						
GATATGTAAA (chemistry not fully specified)	0	0	0	0	1	10						

Sequence	AD1 (SAGE tag count) (SAGE library AD1)	AD2 (SAGE tag count) (SAGE library AD2)	CA1 (SAGE tag count) (SAGE library CA1)	CA2 (SAGE tag count) (SAGE library CA2)	NC1 (SAGE tag count) (SAGE library NC1)	NC2 (SAGE tag count) (SAGE library NC2)	AD1 (SAGE tag count) (adenoma library 1)	AD2 (SAGE tag count) (adenoma library 2)	CA1 (SAGE tag count) (cancer library 1)	CA2 (SAGE tag count) (cancer library 2)	NC1 (SAGE tag count) [1]	NC2 (SAGE tag count) [2]
GCAGGAGGTG (chemistry not fully specified; the letters are possibly those of the target site)	0	0	0	1	2	13						
ACAATTGGTC (chemistry not fully specified)	0	0	0	0	0	10						
GGCTGCCTGC (chemistry not fully specified)	4	3	5	2	13	11						
CCATTCCACT (chemistry not fully specified)	2	0	0	0	13	1						
CCCCCGAAGC (chemistry not fully specified)	3	15	4	8	25	27						
GCAGCTCCTG (chemistry not fully specified)	3	2	7	3	13	47						
GTATTGGGGC (chemistry not fully specified)	0	0	0	0	5	7						
AAGGTAGCAG (chemistry not fully specified)	2	4	2	4	15	16						
ACTGTGGCGG (chemistry not fully specified)	9	12	9	4	17	34						
GGCTGGGCCT (chemistry not fully specified)	14	5	10	8	46	25						
CCCCCGCGGA (chemistry not fully specified)	6	11	4	12	33	25						
GTCATCACCA (chemistry not fully specified; the letters are possibly those of the target site)	0	0	0	0	35	22						
CTGGCTATCC (chemistry not fully specified)	0	0	0	1	7	3						
TTTTTACTGA (chemistry not fully specified)							10	10	8	1	32	19
CCTGCTGCAG (chemistry not fully specified)	0	1	6	9	7	34						
CGCTGTGGGG (chemistry not fully specified)	19	8	8	6	58	53						

From patent US8029764B2, “Methods for detection of colorectal cancer” (The Johns Hopkins University, priority 2001, dated 2011)
